Experimental data as given in patent publication US20090099140A1, “20-Alkyl, Gemini Vitamin D3 Compounds and Methods of Use Thereof” (BioXell S.p.A., priority 2005, published 2009).
Like-named read-outs stand apart in the source and are kept apart here. One block for each compound: values may come before it.

What was measured:
[1] = Determination of maximum tolerated dose (MTD), highest oral dose without hypercalcemia (serum calcium); type: in vivo; conditions: in vivo, po
Procedure: The maximum tolerated dose of the vitamin D3 compounds of the invention were determined in eight week-old female C57BL/6 mice (3 mice/group) dosed orally (0.1 ml/mouse) with various concentrations of Vitamin D3 analogs daily for four days. Analogs were formulated in miglyol for a final concentration of 10, 30, 100 and 300 μg/kg when given at 0.1 ml/mouse p.o. daily. Blood for serum calcium assay was drawn by tail bleed on day five, the final day of the study. Serum calcium levels were determined using a colorimetric assay (Sigma Diagnostics, procedure no. 597). The highest dose of analog tolerated without inducing hypercalcemia (serum calcium >10.7 mg/dl) was taken as the maximum tolerated does (MTD).

[2] = test system: IFN-γ production; test: IFN-γ production by allogeneic T cell activation in the mixed leukocyte response (MLR); type: cell-based; conditions: MLR of allogeneic PBMC from 2 different donors, 5 days, IFN-γ by ELISA, 50% inhibition of IFN-γ production
Procedure: Immature dendritic cells (DC) were prepared as described in Romani, N. et al., J. Immunol. Meth. 196:137. IFN-γ production by allogeneic T cell activation in the mixed leukocyte response (MLR) was determined as described in Penna, G., et al., J. Immunol., 164: 2405-2411 (2000).
Briefly, peripheral blood mononuclear cells (PBMC) were separated from buffy coats by Ficoll gradient and the same number (3×105) of allogeneic PBMC from 2 different donors were co-cultured in 96-well flat-bottom plates. After 5 days, IFN-γ production in the MLR assay was measured by ELISA and the results expressed as amount (nM) of test compound required to induce 50% inhibition of IFN-γ production (IC50) (Table 1).

[3] = mouse, eight week-old female C57BL/6 mice, p.o. daily for four days in miglyol, highest dose without hypercalcemia (serum calcium >10.7 mg/dl) on day five, read-out: MTD (mice)

Compound: [2H]C([2H])([2H])C(O)(CCCC(C)(C/C=C/C(O)(C(F)(F)F)C(F)(F)F)[C@H]1CCC2/C(=C/C=C3/C[C@@H](O)C[C@H](O)C3=C)CCC[C@@]21C)C([2H])([2H])[2H] (stereo partly drawn) [Compound 19, 1,25-Dihydroxy-20S-20-(4-hydroxy-5,5,5-trideutero-4-trideuteromethyl-pentyl)-23E-ene-26,27-hexafluorocholecalciferol]
MTD at 4 days [1, 3]: 0.1 µg/kg

Compound: [2H]C([2H])([2H])C(O)(CCC[C@](C)(CC#CC(O)(C(F)(F)F)C(F)(F)F)[C@H]1CCC2/C(=C/C=C3C[C@@H](O)C[C@H](O)C3)CCC[C@@]21C)C([2H])([2H])[2H] (stereo partly drawn) [Compound 32, 1,25-Dihydroxy-20R-20-(4-hydroxy-5,5,5-trideutero-4-trideuteromethyl-pentyl)-23-yne-26,27-hexafluoro-19-nor-cholecalciferol]
MTD at 4 days [1, 3]: 0.3 µg/kg

Compound: C=C1/C(=C\C=C2/CCC[C@@]3(C)C2CC[C@@H]3[C@](C)(C/C=C\C(O)(C(F)(F)F)C(F)(F)F)CCCC(C)(C)O)CC(O)C[C@@H]1O (stereo partly drawn) [Compound 5, (20S)-1,25-Dihydroxy-20-(5,5,5-trifluoro-4-hydroxy-4-trifluoromethyl-pent-(2Z)-enyl)cholecalciferol]
MTD at 4 days [1, 3]: 0.3 µg/kg
IC50 ([2]; 120 h): 0.042 nM

Compound: [2H]C([2H])([2H])C(O)(CCC[C@@](C)(CC#CC(O)(C(F)(F)F)C(F)(F)F)[C@H]1CCC2/C(=C/C=C3/C[C@@H](O)C[C@H](F)C3=C)CCC[C@@]21C)C([2H])([2H])[2H] (stereo partly drawn) [Compound 24, 1α-Fluoro-25-hydroxy-20S-20-(4-hydroxy-5,5,5-trideutero-4-trideuteromethyl-pentyl)-23-yne-26,27-hexafluorocholecalciferol]
MTD at 4 days [1, 3]: 10 µg/kg
IC50 ([2]; 120 h): 0.0213 nM

IC50 ([2]; 120 h): 0.307 nM
Compound: [2H]C([2H])([2H])C(O)(CCC[C@](C)(C/C=C\C(O)(C(F)(F)F)C(F)(F)F)[C@H]1CCC2/C(=C/C=C3/C[C@@H](O)C[C@H](F)C3=C)CCC[C@@]21C)C([2H])([2H])[2H] (stereo partly drawn) [Compound 27, 1α-Fluoro-25-hydroxy-20R-20-(4-hydroxy-5,5,5-trideutero-4-trideuteromethyl-pentyl)-23Z-ene-26,27-hexafluorocholecalciferol]

IC50 ([2]; 120 h): 0.038 nM
Compound: C=C1/C(=C\C=C2/CCC[C@@]3(C)C2CC[C@@H]3[C@@](C)(CC#CC(O)(C(F)(F)F)C(F)(F)F)CCCC(C)(C)O)C[C@@H](O)C[C@@H]1O (stereo partly drawn) [Compound 7, (20R)-1,25-Dihydroxy-20-(5,5,5-trifluoro-4-hydroxy-4-trifluoromethyl-pent-2-ynyl)-cholecalciferol]

Compound: [2H]C([2H])([2H])C(O)(CCCC(C)(CC#CC(O)(C(F)(F)F)C(F)(F)F)[C@H]1CCC2/C(=C/C=C3C[C@@H](O)C[C@H](O)C3)CCC[C@@]21C)C([2H])([2H])[2H] (stereo partly drawn) [Compound 23, 1,25-Dihydroxy-20S-20-(4-hydroxy-5,5,5-trideutero-4-trideuteromethyl-pentyl)-23-yne-26,27-hexafluoro-19-nor-cholecalciferol]
MTD at 4 days [1, 3]: 1 µg/kg

Compound: C=C1/C(=C\C=C2/CCC[C@@]3(C)C2CC[C@@H]3C(C)(CCCC(C)(C)O)CCCC(C)(C)O)CC(O)C[C@@H]1F (stereo partly drawn) [Compound 3, 1α-Fluoro-25-hydroxy-20-(4-hydroxy-4-methyl-pentyl)-cholecalciferol]
MTD at 4 days ([1]; female, C57BL/6, mouse): > 300 µg/kg
IC50 ([2]; 120 h): 6.27 nM

Compound: [2H]C([2H])([2H])C(O)(CCC[C@](C)(C/C=C/C(O)(C(F)(F)F)C(F)(F)F)[C@H]1CCC2/C(=C/C=C3/C[C@@H](O)C[C@H](O)C3=C)CCC[C@@]21C)C([2H])([2H])[2H] (stereo partly drawn) [Compound 28, 1,25-Dihydroxy-20R-20-(4-hydroxy-5,5,5-trideutero-4-trideuteromethyl-pentyl)-23E-ene-26,27-hexafluorocholecalciferol]
MTD at 4 days [1, 3]: 0.3 µg/kg

Compound: [2H]C([2H])([2H])C(O)(CCCC(C)(C/C=C\C(O)(C(F)(F)F)C(F)(F)F)[C@H]1CCC2/C(=C/C=C3C[C@@H](O)C[C@H](O)C3)CCC[C@@]21C)C([2H])([2H])[2H] (stereo partly drawn) [Compound 17, 1,25-Dihydroxy-20S-20-(4-hydroxy-5,5,5-trideutero-4-trideuteromethyl-pentyl)-23Z-ene-26,27-hexafluoro-19-nor-cholecalciferol]
MTD at 4 days [1, 3]: 0.3 µg/kg
IC50 ([2]; 120 h): 0.0025 nM

IC50 ([2]; 120 h): 0.0132 nM
Compound: [2H]C([2H])([2H])C(O)(CCC[C@](C)(CC#CC(O)(C(F)(F)F)C(F)(F)F)[C@H]1CCC2/C(=C/C=C3/C[C@@H](O)C[C@H](F)C3=C)CCC[C@@]21C)C([2H])([2H])[2H] (stereo partly drawn) [Compound 33, 1α-Fluoro-25-hydroxy-20R-20-(4-hydroxy-5,5,5-trideutero-4-trideuteromethyl-pentyl)-23-yne-26,27-hexafluorocholecalciferol]

Compound: [2H]C([2H])([2H])C(O)(CCC[C@](C)(CC#CC(O)(C(F)(F)F)C(F)(F)F)[C@H]1CCC2/C(=C/C=C3/C[C@@H](O)C[C@H](O)C3=C)CCC[C@@]21C)C([2H])([2H])[2H] (stereo partly drawn) [Compound 31, 1,25-Dihydroxy-20R-20-(4-hydroxy-5,5,5-trideutero-4-trideuteromethyl-pentyl)-23-yne-26,27-hexafluorocholecalciferol]
MTD at 4 days [1, 3]: 0.3 µg/kg

Compound: (20S)-1,25-Dihydroxy-20-[(2E)-5,5,5-trifluoro-4-hydroxy-4-trifluoromethyl-pent-2-enyl]-cholecalciferol [Compound 6]
IC50 [2]: 0.044 nM

Compound: [2H]C([2H])([2H])C(O)(CCCC(C)(CC#CC(O)(C(F)(F)F)C(F)(F)F)[C@H]1CCC2/C(=C/C=C3/C[C@@H](O)C[C@H](O)C3=C)CCC[C@@]21C)C([2H])([2H])[2H] (stereo partly drawn) [Compound 22, 1,25-Dihydroxy-20S-20-(4-hydroxy-5,5,5-trideutero-4-trideuteromethyl-pentyl)-23-yne-26,27-hexafluorocholecalciferol]
MTD at 4 days [1, 3]: 0.3 µg/kg

Compound: [2H]C([2H])([2H])C(O)(CCCC(C)(C/C=C/C(O)(C(F)(F)F)C(F)(F)F)[C@H]1CCC2/C(=C/C=C3C[C@@H](O)C[C@H](O)C3)CCC[C@@]21C)C([2H])([2H])[2H] (stereo partly drawn) [Compound 20, 1,25-Dihydroxy-20S-20-(4-hydroxy-5,5,5-trideutero-4-trideuteromethyl-pentyl)-23E-ene-26,27-hexafluoro-19-nor-cholecalciferol]
MTD at 4 days [1, 3]: 0.1 µg/kg

IC50 ([2]; 120 h): 0.012 nM
Compound: [2H]C([2H])([2H])C(O)(CCC[C@](C)(C/C=C/C(O)(C(F)(F)F)C(F)(F)F)[C@H]1CCC2/C(=C/C=C3/C[C@@H](O)C[C@H](F)C3=C)CCC[C@@]21C)C([2H])([2H])[2H] (stereo partly drawn) [Compound 30, 1α-Fluoro-25-hydroxy-20R-20-(4-hydroxy-5,5,5-trideutero-4-trideuteromethyl-pentyl)-23E-ene-26,27-hexafluorocholecalciferol]

Compound: [2H]C([2H])([2H])C(O)(CCC[C@](C)(C/C=C\C(O)(C(F)(F)F)C(F)(F)F)[C@H]1CCC2/C(=C/C=C3C[C@@H](O)C[C@H](O)C3)CCC[C@@]21C)C([2H])([2H])[2H] (stereo partly drawn) [Compound 26, 1,25-Dihydroxy-20R-20-(4-hydroxy-5,5,5-trideutero-4-trideuteromethyl-pentyl)-23Z-ene-26,27-hexafluoro-19-nor-cholecalciferol]
MTD at 4 days [1, 3]: 0.3 µg/kg

Compound: [2H]C([2H])([2H])C(O)(CCC[C@](C)(C/C=C/C(O)(C(F)(F)F)C(F)(F)F)[C@H]1CCC2/C(=C/C=C3C[C@@H](O)C[C@H](O)C3)CCC[C@@]21C)C([2H])([2H])[2H] (stereo partly drawn) [Compound 29, 1,25-Dihydroxy-20R-20-(4-hydroxy-5,5,5-trideutero-4-trideuteromethyl-pentyl)-23E-ene-26,27-hexafluoro-19-nor-cholecalciferol]
MTD at 4 days [1, 3]: 0.1 µg/kg
